One test has as its system MMP9. In words: MMP9 production by human alveolar macrophages cultured on fibronectin (gelatin zymography). The settings on record: PTA2 1.25, 6.25 and 25 μM, dose-dependent. Format: cell-based. The text has this: FIG. 14. Human alveolar macrophages produce TXB2 when cultured on fibronectin and thromboxane receptor signaling is required for MMP9 production. A, TXB2 production measured in conditioned media from human macrophages cultured on fibronectin (closed bars) or plastic (open bars) at the indicated cellular concentrations. B, TXB2 measured in conditioned media from macrophages cultured at 0.125×10^6 cells/ml on either plastic (ctl) or FN from four individuals. The data represent the means±S.E. C, gelatin zymogram of conditioned media from cells cultured as indicated and in the presence of increasing doses of the thromboxane receptor antagonist PTA2 (at 1.25, 6.25, and 25 μM, respectively). Below the zymogram is quantitation of MMP9 activity by densitometric analysis.
Tissue-culture 96-well plates (Costar high binding catalogue number 3590) were coated with 10 μg/ml of murine fibronectin (Molecular Innovations, Nori, Minn.; catalogue number MFBN) or human fibronectin (Molecular Innovations; catalogue number HFBN) in DPBS without Ca^2+ or Mg^2+ (Mediatech, Inc., Manassas, Va.) for 2 h at room temperature. […] PGE2 and TXB2 were measured in conditioned medium by ELISA according to the manufacturer's instructions (ElisaTech, Aurora, Colo.). […]
For other human studies, we quantitated MMP9 by ELISA in conditioned medium (ELISA TECH, Aurora, Colo.). […]

The subject of another test is MMP2. In words: MMP2 activity by gelatin zymography in conditioned media of mouse peritoneal macrophages cultured on fibronectin. Format: cell-based. The settings on record: wild type and Arhgef1−/− macrophages; 20 mM aspirin or 28 μM L-655,240. How it is done:
FIG. 12. Thromboxane receptor signaling is necessary for fibronectin-induced MMP9 production by macrophages and is attenuated by Arhgef1. A, representative gelatin zymograms of conditioned media from macrophages cultured on plastic (ctl) or FN and treated with 1.56 or 6.25 μM of the thromboxane receptor antagonist PTA2. Wild type (+/+) and Arhgef1^−/− (−/−) samples from separate zymograms are shown. B, quantitation of MMP9 activity as determined by densitometric analysis of zymograms in A. The results are representative of two independent experiments. C, representative zymograms from conditioned media from macrophages cultured on plastic or fibronectin and treated with 28 μM of the thromboxane receptor antagonist L-655,240. D, quantitation of MMP9 activity as determined by densitometric analysis of zymograms in C. The results are compiled from two independent experiments with n=4 for both wild type (open bars) and Arhgef1^−/− (black bars) samples. […] E, MMP2 activity was quantitated in conditioned media as previously described for MMP9. […] The data represent the means±S.E. F, MMP9 activity was quantitated as previously described and normalized to a percentage of fibronectin response for each genotype. […] G, relative Mmp9 expression was measured by qPCR in macrophages cultured on fibronectin in the presence of the thromboxane receptor agonist (U-46619, 10 nM), S1P (40 nM), or LPA (10 μM). […]

Turning to `CCCCC[C@@H](O)/C=C/[C@H]1C[C@H]2C[C@@H]([C@@H]1C/C=C\CCCC(=O)O)C2(C)C` (relative stereo) [PTXA2, (18-(1alpha,2beta(Z),3alpha(1E,3S*),5alpha))-7-(3-(3-Hydroxy-1-octenyl)-6,6-dimethylbicyclo(3.1.1)hept-2-yl)-5-heptenoic acid], the “inhibition of MMP9 production” value with MMP9 is around 90%.
On to `CC(=O)Oc1ccccc1C(=O)O` [aspirin], for which the MMP2 activity entry with MMP2 was “not affected”.
